According to US20240148962A1, “INTRAVENOUS DELIVERY OF LARGE VOLUMES OF GAS WITH HIGHLY PRESSURIZED SUPERSATURATED SOLUTION” (Regents of the University of Minnesota, priority 2021, published 2024):

Tests used:
[1] = Oxygen content dissolved in saline under different pressure and temperature, with and without nanobubbles; type: physicochemical; details: FIG. 4A; 5° C. and 5 atm
From the text: Nanobubbles (triangles) are compared to control and macrobubbles (dots).

[2] = 1 atm, room temperature; cited from earlier work

## O=O [oxygen]
[1]
  oxygen content in saline without nanobubbles: 200 ml of oxygen per L of saline
[2]
  content of oxygen, previously published evidence: 43 ml/liter
